Laboratory results as given in ChEMBL document CHEMBL5233269, “Anticancer potential of spirocompounds in medicinal chemistry: A pentennial expedition” (Eur J Med Chem, 2021).

Columns and labels:
[1] = system: MCF7; assay: Anticancer activity against human MCF7 cells assessed as inhibition of cell viability; format: functional, cell-based
[2] = system: HepG2; assay: Anticancer activity against human HepG2 cells; format: functional, cell-based
[3] = Cytotoxicity against human HBF4 cells incubated for 48 hrs by SRB assay relative to control; format: toxicity, cell-based; design: concentration or dose not given beside the values; conditions: hbf4, 48 h
[4] = system: MCF7; assay: Cytotoxicity against human MCF7 cells incubated for 48 hrs by SRB assay relative to control; format: functional; design: concentration or dose not given beside the values
[5] = system: HepG2; assay: Cytotoxicity against human HepG2 cells incubated for 48 hrs by SRB assay relative to control; format: functional; design: concentration or dose not given beside the values
[6] = system: HCT-116; assay: Cytotoxicity against human HCT-116 cells; format: functional, cell-based
[7] = system: A549; assay: Cytotoxicity against human A549 cells; format: functional, cell-based
[8] = system: SW-620; assay: Cytotoxicity against human SW620 cells; format: functional, cell-based
[9] = system: PC-3; assay: Cytotoxicity against human PC-3 cells; format: functional, cell-based
[10] = system: K562; assay: Anticancer activity against human K562 cells; format: functional, cell-based
[11] = system: DU-145; assay: Anticancer activity against human DU-145 cells; format: functional, cell-based
[12] = system: MCF7; assay: Anticancer activity against human MCF7 cells; format: functional, cell-based
[13] = system: HeLa; assay: Anticancer activity against human HeLa cells; format: functional, cell-based
[14] = system: A549; assay: Anticancer activity against human A549 cells assessed as inhibition of cell proliferation; format: functional, cell-based
[15] = system: HepG2; assay: Anticancer activity against human HepG2 cells assessed as inhibition of cell viability; format: functional, cell-based
[16] = system: HCT-116; assay: Anticancer activity against human HCT-116 cells assessed as inhibition of cell growth; format: functional, cell-based
[17] = system: PC-3; assay: Anticancer activity against human PC-3 cells assessed as inhibition of cell growth; format: functional, cell-based
[18] = system: MDA-MB-435; assay: Growth inhibition of human MDA-MB-435 cells by SRB assay; format: functional
[19] = system: MCF7; assay: Growth inhibition of human MCF7 cells by SRB assay; format: functional
[20] = target: T1, Amine oxidase [flavin-containing] A (Rattus norvegicus, UniProt P21396); assay: Inhibition of rat brain MAO-A relative to control; format: tissue-based
T1 sequence (P21396 whole entry): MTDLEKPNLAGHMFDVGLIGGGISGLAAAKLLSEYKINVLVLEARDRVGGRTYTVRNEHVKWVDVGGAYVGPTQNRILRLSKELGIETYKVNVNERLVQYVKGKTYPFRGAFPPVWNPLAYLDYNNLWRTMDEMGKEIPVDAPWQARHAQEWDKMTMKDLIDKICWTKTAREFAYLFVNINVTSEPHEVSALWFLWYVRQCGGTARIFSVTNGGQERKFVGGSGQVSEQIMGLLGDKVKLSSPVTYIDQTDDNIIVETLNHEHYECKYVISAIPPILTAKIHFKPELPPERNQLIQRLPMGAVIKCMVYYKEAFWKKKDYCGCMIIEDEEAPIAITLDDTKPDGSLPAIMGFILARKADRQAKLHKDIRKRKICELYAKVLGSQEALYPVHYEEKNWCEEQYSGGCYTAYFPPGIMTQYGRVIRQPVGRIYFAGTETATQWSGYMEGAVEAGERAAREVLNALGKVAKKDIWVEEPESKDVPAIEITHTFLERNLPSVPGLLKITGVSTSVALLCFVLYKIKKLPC

[21] = system: A549; assay: Cytotoxicity against human A549 cells assessed as inhibition of tumor cell proliferation incubated for 72 hrs by MTT assay; format: functional, cell-based; conditions: A549, 72 h
[22] = system: L02; assay: Antiproliferative activity against human L02 cells by MTT assay; format: functional, cell-based

SMILES: Cc1ccc2c(c1)C1(C(=O)N2)C(C#N)=C(N)NC2=C1CCCC2 (configuration not stated)
- IC50 [1]: 28 µM
- IC50 [2]: 36 µM

SMILES: CCOC(=O)C1=C2N=C(N)c3ccccc3N2C2=C(C(=O)CC(C)(C)C2)C12C(=O)Nc1ccccc12 (configuration not stated)
- Activity [3]: 30%
- Activity [4]: 76%
- Activity [5]: 29%

SMILES: CC1(C)CC(=O)C2=C(C1)N(c1ccc(Cl)cc1)C(N)=C(C#N)C21C(=O)Nc2ccccc21 (configuration not stated)
- Activity [3]: 30%
- Activity [4]: 79%
- Activity [5]: 38%

SMILES: CN1CCN(C(=O)C2CN(C(=O)N3CCCCC3)C3(C(=O)Nc4cc(Cl)ccc43)C2c2ccccc2O)CC1 (configuration not stated)
- IC50 [6]: > 50 µM
- IC50 [7]: 1.17 µM
- IC50 [8]: 31.6 µM
- IC50 [9]: > 50 µM

SMILES: CCN1C(=O)[C@@]2(c3cccc(C)c31)[C@H](O)c1ccccc1[C@@H]2[C@]1(CN2CCCC2)C(=O)N(CC)c2c(C)cccc21
- IC50 [10]: 21.4 µM

SMILES: O=C1OCC2Nc3ccc(Cl)cc3NC3(C(=O)Nc4ccccc43)C12 (configuration not stated)
- IC50 [11]: 1.7 µM
- IC50 [12]: 9.51 µM
- IC50 [13]: 5.37 µM
- IC50 [14]: 2.95 µM

SMILES: CC(=O)OC[C@H]1OC(Sc2nnc(/N=C3\CSC4(CCCCC4)N3c3ccc(F)cc3)s2)[C@H](OC(C)=O)[C@@H](OC(C)=O)[C@@H]1OC(C)=O (some centres not stated)
- IC50 [15]: 0.176 µM
- IC50 [16]: 0.0922 µM
- IC50 [17]: 0.121 µM

SMILES: CC1CCC2(CC1)SC/C(=N\c1nnc(SC3O[C@H](CO)[C@@H](O)[C@H](O)[C@H]3O)s1)N2c1ccc(F)cc1 (some centres not stated)
- IC50 [15]: 0.334 µM
- IC50 [16]: 0.106 µM
- IC50 [17]: 0.112 µM

SMILES: N#CC1=C(N)NC2=C(CCCCC2)C12C(=O)Nc1ccccc12 (configuration not stated)
- IC50 [1]: 18 µM
- IC50 [2]: 20 µM

SMILES: O=C1OCC2Nc3ccccc3NC3(C(=O)N(Cc4ccccc4)c4ccc(Br)cc43)C12 (configuration not stated)
- IC50 [11]: 3.16 µM
- IC50 [12]: 2.34 µM
- IC50 [13]: 11.9 µM
- IC50 [14]: 3.8 µM

SMILES: CCN(CC)C[C@@]1([C@H]2c3ccccc3[C@@H](O)[C@]23C(=O)N(C)c2c(C)cccc23)C(=O)N(C)c2c(C)cccc21
- IC50 [10]: 26.7 µM

SMILES: O=C1N(Cc2ccccc2)c2ccccc2[C@@]12[C@H](O)c1ccccc1[C@@H]2[C@]1(CN2CCCCC2)C(=O)N(Cc2ccccc2)c2ccccc21
- IC50 [10]: 9.7 µM

SMILES: CCOC(=O)C1=C2N=C(N)C3=C(SC4CCCCC34)N2C2=C(C(=O)CC(C)(C)C2)C12C(=O)Nc1ccccc12 (configuration not stated)
- Activity [3]: 17%
- Activity [4]: 80%
- Activity [5]: 25%

SMILES: Cc1ccc2c(c1)C1(Nc3ccccc3NC3COC(=O)C31)C(=O)N2 (configuration not stated)
- IC50 [11]: 1.35 µM
- IC50 [12]: 2.14 µM
- IC50 [13]: 9.58 µM
- IC50 [14]: 1.55 µM

SMILES: O=C(C1CN(C(=O)N2CCCCC2)C2(C(=O)Nc3ccccc32)C1c1ccc(Cl)cc1O)N1CCOCC1 (configuration not stated)
- IC50 [6]: > 50 µM
- IC50 [7]: 36.8 µM
- IC50 [8]: < 0.08 µM
- IC50 [9]: > 50 µM

SMILES: N#CC1=C(N)OC2=C(C(=O)C=C2)C12C(=O)Nc1ccc(Cl)cc12 (configuration not stated)
- GI50 [18]: 29.9 µM
- GI50 [19]: 53 µM

SMILES: CN1C(=O)[C@@]2(c3cccc(Cl)c31)[C@H](O)c1ccccc1[C@@H]2[C@]1(CN2CCSCC2)C(=O)N(C)c2c(Cl)cccc21
- IC50 [10]: 21.9 µM

SMILES: CCC(=O)N1CC2C(=O)Oc3ccccc3C2C12C(=O)Nc1cc(Cl)ccc12 (configuration not stated)
- IC50 [6]: > 50 µM
- IC50 [7]: > 50 µM
- IC50 [8]: < 0.08 µM
- IC50 [9]: > 50 µM

SMILES: CC(=O)OC[C@H]1OC(Sc2nc(-c3ccc(C)o3)c3c(n2)N(c2ccc(F)cc2)C2(CCCCC2)S3)[C@H](OC(C)=O)[C@@H](OC(C)=O)[C@@H]1OC(C)=O (some centres not stated)
- IC50 [15]: 0.135 µM
- IC50 [16]: 0.12 µM
- IC50 [17]: 0.224 µM

SMILES: CCC(=O)N1CC2C(=O)Oc3ccccc3C2C12C(=O)Nc1ccccc12 (configuration not stated)
- IC50 [6]: 10.2 µM
- IC50 [7]: 11 µM
- IC50 [8]: 4.28 µM
- IC50 [9]: 46.7 µM

SMILES: N#CC1=C(N)OC2=C(C(=O)c3ccccc32)C12C(=O)Nc1ccc(I)cc12 (configuration not stated)
- GI50 [18]: > 100 µM
- GI50 [19]: 62 µM

SMILES: CCn1c(=S)[nH]c2c(c1=O)C1(CCCCC1)Cc1ccccc1-2
- inhibition (INH) [20]: 58%

SMILES: CCn1c(SC)nc2c(c1=O)C1(CCCCC1)Cc1ccccc1-2
- inhibition (INH) [20]: 66%

SMILES: N#CC1=C(N)OC2=C(C(=O)c3ccccc32)C12C(=O)Nc1ccc(F)cc12 (configuration not stated)
- GI50 [18]: > 100 µM
- GI50 [19]: 90.9 µM

SMILES: CN1C(=O)[C@@]2(c3cccc(Cl)c31)[C@H](O)c1ccccc1[C@@H]2[C@]1(CN2CCCC2)C(=O)N(C)c2c(Cl)cccc21
- IC50 [10]: 21 µM

SMILES: N#CC1=C(N)NC2=C(CCCC2)C12C(=O)Nc1ccc(I)cc12 (configuration not stated)
- IC50 [1]: 28 µM
- IC50 [2]: 26 µM

SMILES: CCN1C(=O)[C@@]2(c3cccc(Cl)c31)[C@H](O)c1ccccc1[C@@H]2[C@]1(CN2CCCC2)C(=O)N(CC)c2c(Cl)cccc21
- IC50 [10]: 8.8 µM

SMILES: CC1(C)CC(=O)C2=C(C1)N(c1ccccc1)C(N)=C(C#N)C21C(=O)Nc2ccccc21 (configuration not stated)
- Activity [3]: 23%
- Activity [4]: 76%
- Activity [5]: 39%

SMILES: C[C@]12CC[C@H](O)CC1=CCC1C2CC[C@@]2(C)C1CC[C@@H]2C1=CC2(C(=O)Nc3ccc(Cl)cc32)C(C#N)=C(N)N1 (some centres not stated)
- IC50 [21]: 11.5 µM

SMILES: CCn1c(SCC(=O)Nc2ccccc2Cl)nc2c(c1=O)C1(CCCCC1)Cc1ccccc1-2
- inhibition (INH) [20]: 66%

SMILES: Cc1coc2c1C(=O)C(=O)c1c-2ccc2c1CCCC2(C)C [TANSHINONE IIA]
- IC50 [22]: 65.3 µM

SMILES: CCOC(=O)C1=C(N)N(c2ccccc2)C2=C(C(=O)CC(C)(C)C2)C12C(=O)Nc1ccccc12 (configuration not stated)
- Activity [3]: 24%
- Activity [4]: 78%
- Activity [5]: 37%

SMILES: O=C1Oc2cc(Cl)ccc2C2C1CN(C(=O)N1CCCCC1)C21C(=O)Nc2ccccc21 (configuration not stated)
- IC50 [6]: 15.8 µM
- IC50 [7]: 7.09 µM
- IC50 [8]: 0.49 µM
- IC50 [9]: > 50 µM

SMILES: O=C1OCC2Nc3ccccc3NC3(C(=O)N(Cc4ccccc4)c4ccccc43)C12 (configuration not stated)
- IC50 [11]: 1.15 µM
- IC50 [12]: 2.24 µM
- IC50 [13]: 2.29 µM
- IC50 [14]: 1.35 µM

SMILES: O=C1OCC2Nc3ccccc3NC3(C(=O)N(Cc4ccccc4)c4ccc(Cl)cc43)C12 (configuration not stated)
- IC50 [11]: 2.19 µM
- IC50 [12]: 9.28 µM
- IC50 [13]: 15.9 µM
- IC50 [14]: 3.89 µM

SMILES: CCCN(CCC)C(=O)CSc1nc2c(c(=O)n1CC)C1(CCCCC1)Cc1ccccc1-2
- inhibition (INH) [20]: 86%

SMILES: CCN(CC)C[C@@]1([C@H]2c3ccccc3[C@@H](O)[C@]23C(=O)N(C)c2ccc(C)cc23)C(=O)N(C)c2ccc(C)cc21
- IC50 [10]: 27.8 µM

SMILES: CC1CCC2(CC1)SC/C(=N\c1nnc(SC3OC[C@@H](O)[C@H](O)[C@H]3O)s1)N2c1ccc(F)cc1 (some centres not stated)
- IC50 [15]: 0.599 µM
- IC50 [16]: 0.107 µM
- IC50 [17]: 9.49 µM

SMILES: CN1C(=O)[C@@]2(c3cccc(Cl)c31)[C@H](O)c1ccccc1[C@@H]2[C@]1(CN2CCCCC2)C(=O)N(C)c2c(Cl)cccc21
- IC50 [10]: 32.8 µM

SMILES: N#CC1=C(N)OC2=C(C(=O)c3ccccc32)C12C(=O)Nc1ccc(Br)cc12 (configuration not stated)
- GI50 [18]: 1.8 µM
- GI50 [19]: > 100 µM

SMILES: N#CC1=C(N)NC2=C(CCCCCC2)C12C(=O)Nc1ccccc12 (configuration not stated)
- IC50 [1]: 32 µM
- IC50 [2]: 39 µM

SMILES: N#CC1=C(N)OC2=C(C(=O)c3ccccc32)C12C(=O)Nc1ccc(Cl)cc12 (configuration not stated)
- GI50 [18]: 2.1 µM
- GI50 [19]: > 100 µM

SMILES: Cc1ccc(-c2nc(SC3O[C@H](CO)[C@@H](O)[C@H](O)[C@H]3O)nc3c2SC2(CCCCC2)N3c2ccc(F)cc2)o1 (some centres not stated)
- IC50 [15]: 0.285 µM
- IC50 [16]: 0.0958 µM
- IC50 [17]: 0.282 µM
